Patent US11319328B2 (priority 2017, dated 2022)

What was measured:
Test in all cases: cells
Assay type in all cases: cell-based
[1] = system: cervical cancer Hela; details: cultured 48 h, MTT
Experimental: (§1) A cell strain: Hepatoma HepG2, cervical cancer Hela, lung cancer A549, breast cancer MCF7 cell line and human normal liver cell HL7702 were purchased from Wuhan Boster Biological Technology Co., Ltd.;
(§2) HepG2, Hela, A549, MCF 7 cells in logarithmic growth phase and human normal hepatocytes HL7702 were centrifuged at 1500 rpm for 5 min, and the supernatant was discarded; the cells were digested with a suitable amount of trypsin, and then suspended with a suitable amount of culture medium (HepG2, Hela and HL7702 cells were suspended with penicillin-streptomycin RPMI1640 culture medium containing 10% calf serum, A549 and MCF 7 cells with penicillin-streptomycin high glucose DMEM culture medium containing 10% calf serum, to adjust the cell concentration to 1.5×10^4 cells/well, the cells were seeded in 96-well plates, and the following experimental groups were set:
(§3) 0.10 mL of the cell suspension was added to each well, and incubated at 37° C., 5% CO2 and saturated humidity for 12 h, and the culture medium was discarded when the cell density was nearly 70%. […] 100 μl of 5 mg/ml MTT was added per well, standing for 4 h at 37° C. 100 μl of DMSO was added to each well, followed by shaking on a shaker for 10 min at 37° C., the absorbance (OD) was measured at 492 nm, and the MTT ratio was calculated as the OD value of drug group/OD value of negative control group.

[2] = system: breast cancer MCF7 cell line; details: cultured 48 h, MTT
Experimental: as §1, §2, §3

[3] = system: lung cancer A549; details: cultured 48 h, MTT
Experimental: as §1, §2, §3

[4] = system: Hepatoma HepG2; details: cultured 48 h, MTT
Experimental: as §1, §2, §3

[5] = system: human normal liver cell HL7702; details: human normal hepatocytes HL7702, cultured 48 h, MTT
Experimental: as §1, §2, §3

IC50 ([1]; Homo sapiens) [µM]	IC50 ([2]; Homo sapiens) [µM]	IC50 ([3]; Homo sapiens) [µM]	IC50 ([4]; Homo sapiens) [µM]	Compound	IC50 [1] [µM]	IC50 [2] [µM]	IC50 [3] [µM]	IC50 [4] [µM]	IC50 [5] [µM]	IC50 ([5]; L02) [µM]
–	–	–	–	COc1cc([C@@H]2c3cc4c(cc3[C@@H](Nc3nc(N)nc5ccccc35)[C@@H]3COC(=O)[C@H]23)OCO4)cc(OC)c1O [Compound 25, 4β-NH-(2,4-quinazolinediamine)-4′-demethylepipodophyllotoxin]	3.6 ± 0.9	6.1 ± 1.3	3.6 ± 0.8	9.8 ± 1.7	16.9 ± 2.5	–
–	–	–	–	COc1cc(C2c3cc4c(cc3C(Nc3ccc5ncccc5c3)C3COC(=O)C23)OCO4)cc(OC)c1O (stereo not drawn) [Compound 26, 4β-NH-(6-aminoquinoline)-4′-demethylepipodophyllotoxin]	5.7 ± 1.1	4.3 ± 0.8	2 ± 0.5	10 ± 1.9	22.8 ± 4.2	–
–	–	–	–	COc1cc(C2c3cc4c(cc3C(Nc3cccc5ncccc35)C3COC(=O)C23)OCO4)cc(OC)c1O (stereo not drawn) [Compound 27, 4β-NH-(5-aminoquinoline)-4′-demethylepipodophyllotoxin]	2.1 ± 1	2.4 ± 0.9	1.3 ± 0.2	1.6 ± 0.8	15.6 ± 1.8	–
–	–	–	–	COc1cc(C2c3cc4c(cc3C(Nc3cccc5cnccc35)C3COC(=O)C23)OCO4)cc(OC)c1O (stereo not drawn) [Compound 28, 4β-NH-(5-aminoisoquinoline)-4′-demethylepipodophyllotoxin]	1.9 ± 0.9	2.5 ± 0.9	1.4 ± 0.6	2.8 ± 1.6	19.8 ± 2.1	–
–	–	–	–	COc1cc([C@@H]2c3cc4c(cc3[C@@H](Nc3cccc5cccnc35)[C@@H]3COC(=O)[C@H]23)OCO4)cc(OC)c1O [Compound 29, 4β-NH-(8-aminoquinoline)-4′-demethylepipodophyllotoxin]	3.8 ± 0.2	1.5 ± 0.4	2.8 ± 0.4	4.5 ± 1.5	73 ± 7.8	–
–	–	–	–	COc1cc(C2c3cc4c(cc3C(Nc3cccc5ccc(C)nc35)C3COC(=O)C23)OCO4)cc(OC)c1O (stereo not drawn) [Compound 30, 4β-NH-(8-aminoquinaldine)-4′-demethylepipodophyllotoxin]	4.2 ± 0.8	3 ± 0.5	0.5 ± 0.05	5 ± 1.1	> 100	–
–	–	–	–	COc1cc(C2c3cc4c(cc3C(Nc3ccc5[nH]ncc5c3)C3COC(=O)C23)OCO4)cc(OC)c1O (stereo not drawn) [Compound 31, 4β-NH-(5-indazolamine)-4′-demethylepipodophyllotoxin]	4.3 ± 0.9	3.5 ± 0.3	1.7 ± 0.3	6.8 ± 1.5	> 100	–
–	–	–	–	COc1cc([C@@H]2c3cc4c(cc3[C@@H](Nc3ccc5[nH]ccc5c3)[C@@H]3COC(=O)[C@H]23)OCO4)cc(OC)c1O [Compound 34, 4β-NH-(5-aminoindole)-4′-demethylepipodophyllotoxin]	21.7 ± 5.3	76.3 ± 5.7	> 100	> 100	> 100	–
–	–	–	–	COc1cc(C2c3cc4c(cc3C(Nc3ccc5cc[nH]c5c3)C3COC(=O)C23)OCO4)cc(OC)c1O (stereo not drawn) [Compound 35, 4β-NH-(6-aminoindole)-4′-demethylepipodophyllotoxin]	21.1 ± 2.9	34.5 ± 3.8	6.5 ± 1	19.5 ± 2.4	> 100	–
–	–	–	–	COc1cc(C2c3cc4c(cc3C(Nc3cccc5cc[nH]c35)C3COC(=O)C23)OCO4)cc(OC)c1O (stereo not drawn) [Compound 36, 4β-NH-(7-aminoindole)-4′-demethylepipodophyllotoxin]	15.4 ± 6.1	8 ± 5.5	19.5 ± 1.5	15.4 ± 2.2	31.5 ± 3.2	–
–	–	–	–	COc1cc(C2c3cc4c(cc3C(Nc3ccccc3-c3nc5ccccc5[nH]3)C3COC(=O)C23)OCO4)cc(OC)c1O (stereo not drawn) [Compound 37, 4β-NH-(2-(2-aminophenyl)benzimidazole)-4′-demethylepipodophyllotoxin]	48.6 ± 6.2	> 100	> 100	> 100	> 100	–
21.4 ± 1.6	53.8 ± 5.6	22.5 ± 1.8	20 ± 1.3	COc1cc([C@@H]2c3cc4c(cc3[C@@H](O[C@@H]3O[C@@H]5CO[C@@H](C)O[C@H]5[C@H](O)[C@H]3O)[C@H]3COC(=O)[C@H]23)OCO4)cc(OC)c1O [Etoposide, etoposide, reference compound]	–	–	–	–	–	24.6 ± 3.8
